Source: US9329188B2, “Method for detecting invasive microvesicles derived from tumor cells” (University of Notre Dame, priority 2010, dated 2016)

Assays:
[1] = system: phospho-ERK; assay: Phospho-ERK and total-ERK in cell lysates, western blotting with densitometry; type: cell-based; details: LOXARF6-GDP cells; propranolol (0.1 mM), atenolol (10 uM)
From the text: The treated cells were probed for phospho-ERK and total-ERK. Band intensities were quantified by densitometry. The average of 3 independent experiments is plotted and standard error bars are shown.

[2] = system: LOXARF6-GDP cells; assay: Microvesicle shedding, cells with microvesicles at the cell surface scored; type: cell-based; details: LOXARF6-GDP cells treated with propranolol or atenolol
From the text: (§1) Standard error bars are shown.
The treated cells were visualized, and those with microvesicles present at the cell surface were scored as described above.

[3] = system: cleaved caspase 3; assay: Cleaved caspase 3 as sign of apoptosis; type: cell-based; details: cells treated with okadaic acid, compared with LOX cells expressing mutant ARF6
[4] = system: parental LOX and LOXARF6-GTP cells; assay: Microvesicle shedding: microvesicles released into media isolated and quantitated for protein, or surface microvesicles scored; type: cell-based
Method: Data from 5 independent experiments is plotted. Standard error bars are shown.
as §1
Released microvesicles were isolated and quantitated for protein. The average of three independent experiments with standard error bars for each experimental condition is shown.
Parental LOX and LOXARF6-GTP were treated with 10 μM ML-7 for 2 hrs. Microvesicles released were isolated, quantitated for protein, and the data is shown as fold change in shedding relative to untreated LOX cells.
The total protein content of lysed microvesicles can be calculated, for example by using the Bradford assay (BioRad). This assay utilizes a spectroscopic analysis procedure to measure the concentration of protein in a solution.

[5] = system: ERK; details: cells treated with 1-butanol
Method: Studies have shown that ARF6 stimulates phospholipase D (PLD) activity (C. D'Souza-Schorey et al., Nat. Rev. Mol. Cell Biol. 7, 347-58 (2006)). […] Here, ARF6 regulated PLD activity and its involvement with ERK activation was tested. First, phospho-ERK levels upon PLD inactivation were examined. […] Next, primary alcohols were used to inhibit PLD, which results in the formation of phosphatidylalcohol at the expense of phosphatidic acid by replacing water.

[6] = system: LOX cells; details: cells expressing constitutively activated MEK; 1-butanol
From the text: Next, the role of phospho-ERK levels in microvesicle shedding was investigated. Specifically, microvesicle shedding was examined in LOXARF6-GDP cells after phospho-ERK levels were restored, or after stimulating PLD activity through pathways independent of ARF6. […] Finally, the effect of 1-butanol on microvesicle shedding induced by expression of constitutively activated MEK was investigated.

[7] = system: phospho-MLC; assay: Phospho-MLC in cell lysates by western blotting, LOXARF6-GDP cells; type: cell-based; details: Go6976 10 μM, ML-7 10 μM, U0126 30 μM for 2 hrs at 37° C.
Method: Cell lysates were probed for phospho-MLC, phospho-ERK and α-tubulin by western blotting.
(§2) Cell lines as indicated were treated with ML-7, and cell lysates were probed for phospho-MLC and α-tubulin by Western blotting. Band density was measured by densitometric scanning. Fold increase in the ratio of phospho-MLC to α-tubulin in ML-7 treated cells relative to untreated cells is shown.

[8] = system: PC3 and SW480 cell lines; details: MEK inhibition
From the text: Vesicle shedding was examined in other tumor cell lines; SW480, a colon carcinoma cell line, PC3, a prostate adenocarcinoma cell line, and MDA-MB-231, an invasive breast tumor cell line.

[9] = system: phospho-MLC; assay: Phospho-MLC in cell lysates by western blotting, parental LOX and LOXARF6-GTP cells; type: cell-based
Method: Additional lanes on the immunoblot between lanes 2 and 3 were spliced out. Band density was measured by densitometric scanning.
as §2
Lysates of parental LOX and LOXARF6-GTP treated with Go6976 […] for 2 hrs at 37° C. were probed for phospho-MLC and α-tubulin by Western blotting.

[10] = LOX cells treated with blebbistatin or latrunculin A

## CC(C)NCC(O)COc1ccc(CC(N)=O)cc1 (centres unmarked) [atenolol]
[1]
  phospho-ERK levels: did not have any effect
[2]
  microvesicle shedding / release: did not have any effect

## CC(C)NCC(O)COc1cccc2ccccc12 (centres unmarked) [propranolol]
[1]
  phospho-ERK levels: restored phospho-ERK levels
[2]
  microvesicle shedding / release: induced microvesicle shedding
[2]; listed as Propranolol
  microvesicle shedding / release: restored vesicle shedding

## C=C1[C@@H](O)[C@@H]2O[C@]3(CC[C@H](/C=C/[C@@H](C)[C@@H]4CC(C)=C[C@@]5(O[C@H](C[C@@](C)(O)C(=O)O)CC[C@H]5O)O4)O3)CC[C@H]2O[C@@H]1[C@@H](O)C[C@H](C)[C@H]1O[C@@]2(CCCCO2)CC[C@H]1C [okadaic acid]
[3]
  cleaved caspase 3 in cells: present in a higher proportion of the cells

## CCCCO [1-butanol]
[4]; LOX cells, 0.3% 1-butanol for 30 min, cells with eight or more surface microvesicles scored
  microvesicle shedding: inhibits
[5]
  ERK activation: inhibits
[6]
  microvesicle shedding induced by constitutively activated MEK: little to no effect

## N#CC(=C(/N)Sc1ccccc1N)/C(C#N)=C(\N)Sc1ccccc1N [U0126]
[4]
  basal as well as ARF6-GTP enhanced microvesicle shedding: significant inhibition
[7]
  phospho-MLC levels / MLC phosphorylation: no inhibition
[8]
  microvesicle shedding: blocked microvesicle shedding
[9]; U0126 (30 μM)
  phospho-MLC levels: inhibition of phospho-MLC was evident

## Cn1c2ccccc2c2c3c(c4c5ccccc5n(CCC#N)c4c21)CNC3=O [Go6976]
[7]
  phospho-MLC levels / MLC phosphorylation: decreased
[9]; Go6976 for 2 hrs at 37° C.
  phospho-MLC levels: no decrease

## O=S(=O)(c1cccc2c(I)cccc12)N1CCCNCC1 [ML-7]
[4]; parental LOX and LOXARF6-GTP cells, 10 μM ML-7 for 2 hrs
  microvesicle shedding: blocks
[7]; listed as ML7
  phospho-MLC levels / MLC phosphorylation: little to no effect
[9]; 10 μM ML-7 for 2 hrs
  MLC phosphorylation: blocked

## Cc1ccc2c(c1)C(=O)C1(O)CCN(c3ccccc3)C1=N2 (centres unmarked) [blebbistatin]
[4]; LOX cells in the presence of blebbistatin
  microvesicle formation: microvesicles do not form
[4]; [10]
  microvesicle shedding: profoundly affected microvesicle shedding

## C/C1=C/C(=O)O[C@@H]2C[C@@H](CC[C@H](C)/C=C\C=C\CC1)O[C@@](O)([C@@H]1CSC(=O)N1)C2 [latrunculin A]
[4]; [10]
  microvesicle shedding: profoundly affected microvesicle shedding
[4]; LOX cells treated with latrunculin A
  treated cells exhibiting clustered microvesicles at the cell surface: 85-90%
[4]; parental LOX and LOXARF6-GTP cells, 2 μM Latrunculin A for 45 min, released microvesicles quantitated for protein
  release of microvesicles: inhibited
